US8530493B2, “Indolopyridines as Eg5 kinesin modulators” (4SC AG, priority 2006, dated 2013)

Tested on: RKO p21 uninduced (proliferating) colon adenocarcinoma cells
Assay: Alamar Blue cell viability assay, RKO p21 uninduced (proliferating)
Type: cell-based
Settings: Homo sapiens, Table B3, anti-proliferative/cytotoxic activity, 72 hours, read-out: −log EC50 RKO p21 uninduced (proliferating) (converted)
Method in brief: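 Viability read by Alamar Blue fluorescence (ex 544, em 590 nm), normalised to untreated wells, after 72 h, 37° C, 5% CO2 compound exposure in triplicate. Cells were uninduced (no Ponasterone A), proliferating RKO colon carcinoma p27 or p21 subclones in DMEM with 10% FCS; values are −log EC50 (mol/l).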

| SMILES | EC50 [nM] |
| --- | --- |
| C[C@@]12Cc3c([nH]c4cc(F)c(Cl)cc34)[C@@H](c3cccc(O)c3)N1C(=O)N(CCN1CCCCC1)C2=O (racemic) [Example 356, (3aSR,10RS)-6-Chloro-7-fluoro-10-(3-hydroxy-phenyl)-3a-methyl-2-(2-piperidin-1-yl-ethyl)-3a,4,9,10-tetrahydro-2,9,10a-triaza-cyclopenta[b]fluorene-1,3-dione] | 39.8 to 251 |
| C[C@@]12Cc3c([nH]c4cc(F)c(Cl)cc34)[C@@H](c3cccc(O)c3)N1C(=O)N(CCN1CCOCC1)C2=O (racemic) [Example 353, (3aSR,10RS)-6-Chloro-7-fluoro-10-(3-hydroxy-phenyl)-3a-methyl-2-(2-morpholin-4-yl-ethyl)-3a,4,9,10-tetrahydro-2,9,10a-triaza-cyclopenta[b]fluorene-1,3-dione] | 39.8 to 251 |
| C=CCN(C)CCN1C(=O)N2[C@H](c3cccc(O)c3)c3[nH]c4ccc(OC(F)F)cc4c3C[C@@]2(C)C1=O (racemic) [Example 290, (3aSR,10RS)-2-[2-(Allyl-methyl-amino)-ethyl]-6-(1,1-difluoro-methoxy)-10-(3-hydroxy-phenyl)-3a-methyl-3a,4,9,10-tetrahydro-2,9,10a-triaza-cyclopenta[b]fluorene-1,3-dione] | 39.8 to 251 |
| CCN(C)CCN1C(=O)N2[C@H](c3cccc(O)c3)c3[nH]c4ccc(OC(F)F)cc4c3C[C@@]2(C)C1=O (racemic) [Example 275, (3aSR,10RS)-6-(1,1-Difluoro-methoxy)-2-[2-(ethyl-methyl-amino)-ethyl]-10-(3-hydroxy-phenyl)-3a-methyl-3a,4,9,10-tetrahydro-2,9,10a-triaza-cyclopenta[b]fluorene-1,3-dione] | ≤ 39.8 |
| CCN(CC)CCN1C(=O)N2[C@H](c3cccc(O)c3)c3[nH]c4ccc(OC(F)F)cc4c3C[C@@]2(C)C1=O (racemic) [Example 276, (3aSR,10RS)-2-(2-Diethylamino-ethyl)-6-(1,1-difluoro-methoxy)-10-(3-hydroxy-phenyl)-3a-methyl-3a,4,9,10-tetrahydro-2,9,10a-triaza-cyclopenta[b]fluorene-1,3-dione] | ≤ 39.8 |
| COc1ccc2[nH]c3c(c2c1)C[C@@]1(C)C(=O)N(CCCN(C)C)C(=O)N1[C@@H]3c1cccc(O)c1 [Example 540, (3aS,10R)-2-(3-Dimethylamino-propyl)-10-(3-hydroxy-phenyl)-6-methoxy-3a-methyl-3a,4,9,10-tetrahydro-2,9,10a-triaza-cyclopenta[b]fluorene-1,3-dione] | ≤ 39.8 |
| CC(C)N(C)CCCN1C(=O)N2[C@H](c3cccc(O)c3)c3[nH]c4cc(F)c(Cl)cc4c3C[C@@]2(C)C1=O (racemic) [Example 474, (3aSR,10RS)-6-Chloro-7-fluoro-10-(3-hydroxy-phenyl)-2-[3-(isopropyl-methyl-amino)-propyl]-3a-methyl-3a,4,9,10-tetrahydro-2,9,10a-triaza-cyclopenta[b]fluorene-1,3-dione] | ≤ 39.8 |
| COc1cc2c3c([nH]c2cc1F)[C@@H](c1cccc(O)c1)N1C(=O)N(CCCNC2CCC2)C(=O)[C@]1(C)C3 (racemic) [Example 333, (3aSR,10RS)-2-(3-Cyclobutylamino-propyl)-7-fluoro-10-(3-hydroxy-phenyl)-6-methoxy-3a-methyl-3a,4,9,10-tetrahydro-2,9,10a-triaza-cyclopenta[b]fluorene-1,3-dione] | 39.8 to 251 |
| COc1cc2c3c([nH]c2cc1F)[C@@H](c1cccc(O)c1)N1C(=O)N(CCCN2CCCCCC2)C(=O)[C@]1(C)C3 (racemic) [Example 329, (3aSR,10RS)-2-(3-Azepan-1-yl-propyl)-7-fluoro-10-(3-hydroxy-phenyl)-6-methoxy-3a-methyl-3a,4,9,10-tetrahydro-2,9,10a-triaza-cyclopenta[b]fluorene-1,3-dione] | 39.8 to 251 |
| C[C@@]12Cc3c([nH]c4ccc(OC(F)F)cc34)[C@@H](c3cccc(O)c3)N1C(=O)N(CCN1CCCC1)C2=O (racemic) [Example 279, (3aSR,10RS)-6-(1,1-Difluoro-methoxy)-10-(3-hydroxy-phenyl)-3a-methyl-2-(2-pyrrolidin-1-yl-ethyl)-3a,4,9,10-tetrahydro-2,9,10a-triaza-cyclopenta[b]fluorene-1,3-dione] | ≤ 39.8 |
| CCN(CC)CCN1C(=O)N2[C@H](c3cccc(O)c3)c3[nH]c4cc(F)c(OC)cc4c3C[C@@]2(C)C1=O (racemic) [Example 258, (3aSR,10RS)-2-(2-Diethylamino-ethyl)-7-fluoro-10-(3-hydroxy-phenyl)-6-methoxy-3a-methyl-3a,4,9,10-tetrahydro-2,9,10a-triaza-cyclopenta[b]fluorene-1,3-dione] | 39.8 to 251 |
| CC(C)NCCN1C(=O)N2[C@H](c3cccc(O)c3)c3[nH]c4ccc(OC(F)F)cc4c3C[C@@]2(C)C1=O (racemic) [Example 268, (3aSR,10RS)-6-(1,1-Difluoro-methoxy)-10-(3-hydroxy-phenyl)-2-(2-isopropylamino-ethyl)-3a-methyl-3a,4,9,10-tetrahydro-2,9,10a-triaza-cyclopenta[b]fluorene-1,3-dione] | ≤ 39.8 |
| CCNCCN1C(=O)N2[C@H](c3cccc(O)c3)c3[nH]c4cc(F)c(OC)cc4c3C[C@@]2(C)C1=O (racemic) [Example 249, (3aSR,10RS)-2-(2-Ethylamino-ethyl)-7-fluoro-10-(3-hydroxy-phenyl)-6-methoxy-3a-methyl-3a,4,9,10-tetrahydro-2,9,10a-triaza-cyclopenta[b]fluorene-1,3-dione] | ≤ 39.8 |
| C[C@@]12Cc3c([nH]c4ccc(Br)cc34)[C@@H](c3cccc(O)c3)N1C(=O)N(CCCNCCO)C2=O (racemic) [Example 235, (3aSR,10RS)-6-Bromo-2-[3-(2-hydroxy-ethylamino)-propyl]-10-(3-hydroxy-phenyl)-3a-methyl-3a,4,9,10-tetrahydro-2,9,10a-triaza-cyclopenta[b]fluorene-1,3-dione] | ≤ 39.8 |
| CCOc1ccc2[nH]c3c(c2c1)C[C@@]1(C)C(=O)N(CCCNC)C(=O)N1[C@@H]3c1cccc(O)c1 (racemic) [Example 186, (3aSR,10RS)-6-Ethoxy-10-(3-hydroxy-phenyl)-3a-methyl-2-(3-methylamino-propyl)-3a,4,9,10-tetrahydro-2,9,10a-triaza-cyclopenta[b]fluorene-1,3-dione] | 39.8 to 251 |
| C=CCN(C)CCN1C(=O)N2[C@H](c3cccc(O)c3)c3[nH]c4cc(F)c(Cl)cc4c3C[C@@]2(C)C1=O (racemic) [Example 362, (3aSR,10RS)-2-[2-(Allyl-methyl-amino)-ethyl]-6-chloro-7-fluoro-10-(3-hydroxy-phenyl)-3a-methyl-3a,4,9,10-tetrahydro-2,9,10a-triaza-cyclopenta[b]fluorene-1,3-dione] | 39.8 to 251 |
| COc1cc2c3c([nH]c2cc1F)[C@@H](c1cccc(O)c1)N1C(=O)N(CCNCC2CC2)C(=O)[C@]1(C)C3 (racemic) [Example 251, (3aSR,10RS)-2-[2-(Cyclopropylmethyl-amino)-ethyl]-7-fluoro-10-(3-hydroxy-phenyl)-6-methoxy-3a-methyl-3a,4,9,10-tetrahydro-2,9,10a-triaza-cyclopenta[b]fluorene-1,3-dione] | ≤ 39.8 |
| C#CCNCCCN1C(=O)N2[C@H](c3cccc(O)c3)c3[nH]c4cc(F)c(Cl)cc4c3C[C@@]2(C)C1=O (racemic) [Example 466, (3aSR,10RS)-6-Chloro-7-fluoro-10-(3-hydroxy-phenyl)-3a-methyl-2-(3-prop-2-ynylamino-propyl)-3a,4,9,10-tetrahydro-2,9,10a-triaza-cyclopenta[b]fluorene-1,3-dione] | 39.8 to 251 |
| CC(=O)N1CCN(CCN2C(=O)N3[C@H](c4cccc(O)c4)c4[nH]c5ccc(OC(F)F)cc5c4C[C@@]3(C)C2=O)CC1 (racemic) [Example 295, (3aSR,10RS)-2-[2-(4-Acetyl-piperazin-1-yl)-ethyl]-6-(1,1-difluoro-methoxy)-10-(3-hydroxy-phenyl)-3a-methyl-3a,4,9,10-tetrahydro-2,9,10a-triaza-cyclopenta[b]fluorene-1,3-dione] | 39.8 to 251 |
| CCOc1ccc2[nH]c3c(c2c1)C[C@@]1(C)C(=O)N(CCCN2CC=CCC2)C(=O)N1[C@@H]3c1cccc(O)c1 (racemic) [Example 208, (3aSR,10RS)-2-[3-(3,6-Dihydro-2H-pyridin-1-yl)-propyl]-6-ethoxy-10-(3-hydroyx-phenyl)-3a-methyl-3a,4,9,10-tetrahydro-2,9,10a-triaza-cyclopenta[b]fluorene-1,3-dione] | 39.8 to 251 |
| C=CCN(C)CCCN1C(=O)N2[C@H](c3cccc(O)c3)c3[nH]c4cc(F)c(OC)cc4c3C[C@@]2(C)C1=O (racemic) [Example 317, (3aSR,10RS)-2-[3-(Allyl-methyl-amino)-propyl]-7-fluoro-10-(3-hydroyx-phenyl)-6-methoxy-3a-methyl-3a,4,9,10-tetrahydro-2,9,10a-triaza-cyclopenta[b]fluorene-1,3-dione] | 39.8 to 251 |
| COc1cc2c3c([nH]c2cc1F)[C@@H](c1cccc(O)c1)N1C(=O)N(CCN(C)CCO)C(=O)[C@]1(C)C3 [Example 246, (3aS,10R)-7-Fluoro-2-{2-[(2-hydroxy-ethyl)-methyl-amino]-ethyl}-10-(3-hydroxy-phenyl)-6-methoxy-3a-methyl-3a,4,9,10-tetrahydro-2,9,10a-triaza-cyclopenta[b]fluorene-1,3-dione] | 39.8 to 251 |
| CNCCCN1C(=O)N2[C@H](c3cccc(O)c3)c3[nH]c4cc(F)c(Cl)cc4c3C[C@@]2(C)C1=O (racemic) [Example 456, (3aSR,10RS)-6-Chloro-7-fluoro-10-(3-hydroxy-phenyl)-3a-methyl-2-(3-methylamino-propyl)-3a,4,9,10-tetrahydro-2,9,10a-triaza-cyclopenta[b]fluorene-1,3-dione] | 39.8 to 251 |
| CC(C)NCCN1C(=O)N2[C@H](c3cccc(O)c3)c3[nH]c4ccc(Br)cc4c3C[C@@]2(C)C1=O (racemic) [Example 233, (3aSR,10RS)-6-Bromo-10-(3-hydroxy-phenyl)-2-(2-ispropylamino-ethyl)-3a-methyl-3a,4,9,10-tetrahydro-2,9,10a-triaza-cyclopenta[b]fluorene-1,3-dione] | ≤ 39.8 |
